Test [1] relates to AMPK. Description: Western immunoblot phospho-AMPK in L6 myotubes. The note with it: AICAR 30 min (2 mM per Figure 1 legend, 1 mM per methods). Type of test: cell-based, rat. As to the method:
L6 cells myotubes, H4IIE cells and 3T3-L1 adipocytes were treated with either CAME, CAEE (50 μM each) or vehicle (DMSO) for 18 h. Insulin (100 nM) or aminoimidazole carboxamide ribonucleotide (AICAR; 1 mM) were added to some vehicle-treated wells 30 min prior to the end of the treatment and served as the positives controls. Protein content was assayed by the bicinchoninic acid method (Thermo Scientific Pierce Protein Research, Rockford, IL) standardized to bovine serum albumin. Western immunoblotting was performed as described elsewhere (Eid et al. [2010]). Membranes were incubated overnight with phospho-AMPK, phospho-Akt, GLUT4, GLUT1 and β-actin antibodies (1:1000 dilution, Cell Signalling Technology, Danvers, MA), or with PPAR-γ, SREBP-1 (1:200, Santa Cruze Biotechnology, Santa Cruz, CA), followed by incubation with HRP-coupled secondary antibody (1:10,000) for 1 h. Immunoreactive bands were visualized by enhanced chemiluminescence and quantified by the Scion Image program (Scion Corporation, Frederick, MD). Experiments were repeated on 3 different passages of cells, each passage containing all conditions in parallel.
Figure 1. (A) CAME and CAEE increase ^3H-deoxyglucose uptake in L6 GLUT4myc myotubes. Cells were treated with 50 μM of either CAME, CAEE, or with vehicle (0.1% DMSO) for 18 h. 100 nM insulin served as the positive control and was applied for the last 15 min of the treatment in vehicle-treated cells. Glucose uptake was performed as described in Materials and Methods section. […] Cells were treated as previously described, cell surface GLUT4myc was detected by an enzyme-linked colorimetric assay. […] Results represent the means ± SEM of three independent experiments, and 3-4 cells were analyzed for each condition per experiment. *Indicates a significant (p ≤ 0.05) difference, **(p < 0.01) from the vehicle control group as assessed by ANOVA. […] Data are expressed as (D) phospho-AMPK/β-actin, (E) GLUT4/β-actin and (F) GLUT1/β-actin and are given as mean ± SEM from 3 experiments. *p < 0.05 indicates a significant difference, **(p < 0.01) from the vehicle control group.

The test system of test [2] is L6 GLUT4myc myotubes. In words: 3H-Deoxyglucose uptake assay. As to conditions: insulin 100 nM, 15 min. Type of test: cell-based, rat. As to the method: Measurement of glucose uptake was performed as previously described (Eid et al. [2010]) using [^3H]-2-deoxyglucose (TRK-383, Amersham Biosciences, Buckinghamshire, UK). Nonspecific uptake was measured in the presence of cytochalasin B (10 μM) and was subtracted from all values.
(§1) Figure 1. (A) CAME and CAEE increase ^3H-deoxyglucose uptake in L6 GLUT4myc myotubes. Cells were treated with 50 μM of either CAME, CAEE, or with vehicle (0.1% DMSO) for 18 h. 100 nM insulin served as the positive control and was applied for the last 15 min of the treatment in vehicle-treated cells. Glucose uptake was performed as described in Materials and Methods section. (B) CAME and CAEE stimulate GLUT4 translocation in L6 GLUT4myc myotubes. Cells were treated as previously described, cell surface GLUT4myc was detected by an enzyme-linked colorimetric assay. By the end of the treatment, L6- GLUT4myc cells were labeled with anti-c-myc antibody as described in Materials and Methods section. Results represent the means ± SEM of three independent experiments, and 3-4 cells were analyzed for each condition per experiment. *Indicates a significant (p ≤ 0.05) difference, **(p < 0.01) from the vehicle control group as assessed by ANOVA. […] L6 myotubes treated with CAME or CAEE (50 μM each), DMSO (0.1%) for 18 h. Insulin (100 nM) and AICAR (2 mM) both applied for 30 min and served as positive controls. Immunoblots were probed with anti phospho-AMPK (Thr 172), anti-GLUT4, anti-GLUT1 and anti-phospho-Akt (Ser 473) antibodies as described in Materials and Methods section. Anti-β-actin antibody was used as a loading control. Representative blots are shown in panel C. Data are expressed as (D) phospho-AMPK/β-actin, (E) GLUT4/β-actin and (F) GLUT1/β-actin and are given as mean ± SEM from 3 experiments. *p < 0.05 indicates a significant difference, **(p < 0.01) from the vehicle control group.

The subject of test [3] is GLUT4myc. In words: Cell surface GLUT4myc (GLUT4 translocation), OPD assay. Type of test: cell-based, rat. The note with it: insulin 100 nM, 15 min; L6-GLUT4myc. As to the method:
L6-GLUT4myc myotubes grown in 24-well plates were serum-starved for 4 h and were incubated with either CAME or CAEE (50 μM) for 18 h or insulin (100 nM) for 15 min. Cell-surface GLUT4myc levels were measured by an antibody-coupled colorimetric assay (Niu et al. [2003]) using O-phenylenediamine dihydrochloride (OPD) reagent (1 mL/well) (Sigma-Aldrich, St. Louis, MO), an anti-c-myc antibody (1:200 dilution; Santa Cruz Biotechnology, Santa Cruz, CA) and horseradish peroxidase (HRP)-conjugated goat anti-rabbit IgG at 4 °C (1:1000 dilution; Cell Signaling Technologies, Danvers, MA).
as §1, with “Anti-β-actin antibody was used as a loading control. Representative blots are shown in panel C.” left out

Test [4] deals with T1, G6Pase (Rattus norvegicus, UniProt P43428).
T1 sequence (P43428 1-357): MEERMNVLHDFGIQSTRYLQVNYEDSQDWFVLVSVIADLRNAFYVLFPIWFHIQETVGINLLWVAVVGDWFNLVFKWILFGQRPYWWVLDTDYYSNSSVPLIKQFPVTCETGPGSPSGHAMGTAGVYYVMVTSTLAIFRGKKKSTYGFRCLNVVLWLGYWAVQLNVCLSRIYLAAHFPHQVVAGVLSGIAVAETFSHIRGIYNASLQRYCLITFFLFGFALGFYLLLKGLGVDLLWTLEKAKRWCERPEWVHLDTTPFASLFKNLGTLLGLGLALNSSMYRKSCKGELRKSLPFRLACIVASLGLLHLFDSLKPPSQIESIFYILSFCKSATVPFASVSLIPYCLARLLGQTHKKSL
Description: Enzymatic activity of G6Pase in H4IIE cells. It is filed as cell-based. As to conditions: insulin 100 nM, same treatment period, relative to DMSO. As to the method: At 90% confluence, H4-IIE cells were treated with 12.5, 25, 50 and 100 μM of either CAME or CAEE in serum free medium. Vehicle (0.1% DMSO)-treated and 100 nM insulin-treated cells served as the negative and positive control respectively. The activity of G6Pase was assessed by measuring the rate of glucose production in the presence of a non-limiting amount of glucose-6-phosphate (G6P) as described elsewhere (Nachar et al. [2013]). Total glucose production was measured using a commercial glucose assay kit (AutoKit Glucose; Wako Diagnostics, Richmond, VA). Protein content was measured using bicinchoninic acid (BCA) assay (Simpson [2008]) and G6Pase activity was expressed in relation to protein content.
Figure 2. CAME and CAEE inhibit G6Pase by mechanisms involving activation of AMPK. (A) H4IIE hepatocytes were treated for 16 h with several concentrations (12.5, 25, 50 and100 μM) of either CAME or CAEE and G6Pase activity was determined colorimetrically using a commercial glucose assay kit as described under Materials and Methods. Data are expressed relative to vehicle control (0.1% DMSO, 0% inhibition). Insulin (100 nM) applied for similar treatment period served as the positive control. (B and C) Cells were treated with the optimal nontoxic concentration of either CAME, CAEE (50 μM each), or DMSO (0.1%) for 18 h, insulin (100 nM), AICAR (1 mM) applied for 30 min served as the positive controls. (B) The upper blot was probed with anti-phospho-AMPK antibody (Thr 172) and the lower blot was probed with anti-pan AMPK. (C) Blots were probed with antibodies against phospho-Akt (Ser 473) or pan-Akt. Immunoblots are representative of three independent experiments with similar results. (D) Data are expressed as phospho-AMPK/pan-AMPK and are given as mean ± SEM from 3 experiments. *p < 0.05 indicates a significant difference, **(p < 0.01), ***(p < 0.001) from the vehicle control group.

Experimental findings from paper PMC6130489, “Caffeic acid methyl and ethyl esters exert potential antidiabetic effects on glucose and lipid metabolism in cultured murine insulin-sensitive cells through mechanisms implicating activation of AMPK” (Pharmaceutical Biology, 2017) are described below.

With `NC(=O)c1ncn([C@@H]2O[C@H](CO)[C@@H](O)[C@H]2O)c1N` [AICAR, aminoimidazole carboxamide ribonucleotide, reference compound], the “AMPK phosphorylation, fold increase over DMSO” value in test [1] came out at 8.5 fold.

Consider “insulin: Insulin from bovine pancreas, positive control (100 nM)”, for which the “glucose uptake, percent of DMSO control” value in test [2] amounted to 175 ± 13%. The same compound had a 2-deoxyglucose uptake rate in test [2] (basal (DMSO) 10.1 ± 0.5) of 17.7 ± 1.2 pmol/min/mg protein. For the same compound, the “GLUT4 translocation, fold relative to DMSO” value in test [3] worked out at 1.73 ± 0.18 fold. Also, the “inhibition of G6Pase activity” value in test [4] turned out to be 70.7 ± 2.3%.
